Measured values as given in patent US10617715B2, “Methods of treating or preventing biofilm associated infections with free available chlorine free available chlorine water” (Sonoma Pharmaceuticals, Inc., priority 2008, dated 2020).
Positions of bridges follow the written chain, without caps; N, C: chain ends. Non-standard residues stand in square brackets, D forms with d. Residues, ends and D or L forms follow the SMILES beside them. *: point of attachment. Ileψ(thiazoline)Cys = CC[C@H](C)[C@H](N)C1=N[C@H](C(=O)*)CS1; dOrn = NCCC[C@@H](N)C(=O)O

Tested on: exponential phase P. aeruginosa
Test: Susceptibility testing of exponential phase planktonic P. aeruginosa cells (suspension kill)
Format: cell-based, Pseudomonas aeruginosa
Conditions: bacitracin 33 U/ml, 20 sec.-20 min.

Question: How did the reduction of viability turn out when `CC[C@H](C)[C@H](N)C1=N[C@H](C(=O)N[C@@H](CC(C)C)C(=O)N[C@H](CCC(=O)O)C(=O)N[C@H](C(=O)N[C@H]2CCCCNC(=O)[C@H](CC(N)=O)NC(=O)[C@@H](CC(=O)O)NC(=O)[C@H](Cc3cnc[nH]3)NC(=O)[C@@H](Cc3ccccc3)NC(=O)[C@H]([C@@H](C)CC)NC(=O)[C@@H](CCCN)NC2=O)[C@@H](C)CC)CS1` [bacitracin] ({Ileψ(thiazoline)Cys}-L[dE]IK[dOrn]I[dF]H[dD]N; lactam 4-C) was run?
Answer: ineffective and did not result in reduction of viability
